Key:
Assay type in all cases: in vivo
Settings in all cases: comparative experiment, 20 g of a.i./ha
Viola tricolor = assay: Pre-emergence herbicidal action, VIOTR; parameters: key to Herbicidal action against VIOTR: % activity: 100 = plants have died, 0 = like control plants
Procedure, shortened: (§1)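 Sown pots (sandy loam) sprayed pre-emergence → greenhouse → visual rating at 3 weeks; % activity vs untreated control, 100% = dead.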

Veronica persica = assay: Pre-emergence herbicidal action, VERPE; parameters: key to Herbicidal action against VERPE: % activity: 100 = plants have died, 0 = like control plants
Procedure, shortened: as §1

Avena fatua = assay: Pre-emergence herbicidal action, AVEFA
Source text: 1. Pre-Emergence Herbicidal Action Against Harmful Plants Seeds of monocotyledonous and dicotyledonous weed plants and crop plants are laid out in sandy loam soil in wood-fiber pots and covered with soil. The compounds of the invention, formulated in the form of wettable powders (WP) or as emulsion concentrates (EC), are then applied to the surface of the covering soil in the form of an aqueous suspension or emulsion at a water application rate equating to 600 to 800 l/ha, with addition of 0.2% wetting agent. After the treatment, the pots are placed in a greenhouse and kept under good growth conditions for the trial plants. The damage to the test plants is scored visually after a test period of 3 weeks by comparison with untreated controls (herbicidal activity in percent (%): 100% activity=the plants have died, 0% activity=like control plants). […] The tables below illustrate, in an exemplary manner, the post-emergence herbicidal action of the compounds according to the invention, the herbicidal activity being stated in percent. [table] In the experiments that follow, herbicidal action of numerous inventive compounds and the known compounds that are structurally closest from D1 (WO 2012/028579 A1) and D2 (WO 2018/202535 A1) were compared under the above-specified conditions by the pre-emergence and post-emergence method. […]

Stellaria media = assay: Pre-emergence herbicidal action, STEME; parameters: key to Herbicidal action against STEME: % activity: 100 = plants have died, 0 = like control plants
Procedure, shortened: as §1

Matricaria inodora = assay: Pre-emergence herbicidal action, MATIN; parameters: key to Herbicidal action against MATIN: % activity: 100 = plants have died, 0 = like control plants
Procedure, shortened: as §1

Pharbitis purpurea = assay: Pre-emergence herbicidal action, PHBPU
Procedure, shortened: as §1

Structure (SMILES): CSCc1c(Cl)ccc(C(=O)Nc2nnnn2C)c1C [Example 1-46]
- Herbicidal action against VIOTR (Viola tricolor): 70
- Herbicidal action against VERPE (Veronica persica): 50
- Herbicidal action against AVEFA (Avena fatua): 20
- Herbicidal action against STEME (Stellaria media): 90
- Herbicidal action against MATIN (Matricaria inodora): 80
- Herbicidal action against PHBPU (Pharbitis purpurea): 40
